Measured values from patent US12728116B2, “Methods of treating multiple sclerosis” (Vanda Pharmaceuticals Inc., priority 2021, dated 2026).

Columns and labels:
[1] = system: adult subjects with relapsing MS; test: Treatment-emergent adverse events (Safety Set); assay type: in vivo, human; conditions: for AESI effect on heart rate and rhythm (including hypotension) on Day 1: subjects with at least one AE, %: Day 1 (ponesimod dose 2 mg); for TEAE ALT increased, subjects / TEAE headache, subjects / TEAE nasopharyngitis, subjects / TEAE upper respiratory tract infection, subjects: ponesimod 20 mg, teriflunomide 14 mg; for AESI category Effect on heart rate and rhythm (including aypotension), % / AESI category Hepatobiliary disorders/Liver enzyme abnormality, % / AESI category Herpetic infection, % / AESI category Hypertension, % / AESI category Macular edema, % / AESI category Non-skin malignancy, % / AESI category Pulmonary events, % / AESI category Seizure, % / AESI category Skin malignancy, % / AESI category Infection, %: treatment-emergent AESI; for AESI category Infection, %: only if reported as serious or severe;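 for all read-outs here: safety Set comprises every randomized subject given one or more doses, analysed by the treatment actually received rather than the assigned arm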
Experimental: The Safety Set (SAF) included all randomized subjects who received at least one dose of study treatment. Subjects were analyzed based on actual treatment taken, not randomized treatment.

[2] = system: adult subjects with relapsing MS; test: Confirmed relapses up to EOS - annualized relapse rate (ARR), phase III study; assay type: in vivo, human; conditions: for Total number of relapses (confirmed, up to EOS): total time 1119 / 1137 years; for Mean estimate (ARR), confirmed relapses up to EOS, negative binomial regression: ponesimod 20 mg, teriflunomide 14 mg
Experimental: Primary efficacy variable/primary timepoint: The primary endpoint was annualized relapse rate (ARR) up to the end of study (EOS) defined as the number of confirmed relapses per subject-year. All available data up to EOS, regardless of treatment discontinuation was included (ITT approach).
A generalized linear model with negative binomial distribution was fitted for the primary efficacy endpoint ARR. Two-sided hypotheses were expressed in terms of the model parameters μP20 mg and μT14 mg.
The primary statistical analysis of the ARR endpoint was performed on the FAS using a negative binomial model for confirmed relapses, with the stratification variables prior use of disease-modifying therapies (DMTs) and EDSS category as well as the number of relapses in the year prior to study entry, included in the model and time in the study as an offset variable. Sensitivity analyses was performed on the PPS and also based on different subgroups derived from baseline variables.
A relapse is defined as new, worsening or recurrent neurological symptoms that occur at least 30 days after the onset of a preceding relapse, and that last at least 24 hours, in the absence of fever or infection.
A relapse was confirmed by the treating neurologist only when the subjects' symptoms were accompanied by an increase in EDSS/FS (functional system) scores, which were consistent with the subject's symptoms, from a previous clinically stable EDSS/FS assessment (i.e., performed at least 30 days after the onset of any previous relapse), obtained by the efficacy assessor and consistent with the following: • An increase of at least half a step (0.5 points; unless EDSS=0, then an increase of at least 1.0 points is required) or • An increase of at least 1.0 point in at least two FS scores, or • An increase of at least 2.0 points in at least one FS score (excluding bladder/bowel and cerebral).
The primary statistical analysis was performed up to EOS on the FAS using a negative binomial regression model for confirmed relapses, with treatment as a factor and the binary stratification variables (EDSS≤3.5 versus EDSS>3.5; DMTs within last 2 years prior to randomization [Yes/No]) and the number of relapses in the year prior to study entry (categories≤1 (or missing) and […]) included in the model. The model also included an offset variable defined as the log of time on study (in years) from randomization up to EOS.
This subgroup analysis examined patients with EDSS≤3 (up to moderate disability in one function, or mild disability in three or four functions; no impairment to walking), and/or who were treatment naïve.
ARR differences and mean number of CUALs were examined using a negative binomial regression model with adjusting for the log time in the study (in years) as an offset.

[3] = Safety Set, listed as ponesimod
[4] = treatment-emergent, Safety Set, listed as ponesimod
[5] = Safety Set, listed as teriflunomide
[6] = treatment-emergent, Safety Set, listed as teriflunomide

## CCC/N=C1\S/C(=C\c2ccc(OC[C@H](O)CO)c(Cl)c2)C(=O)N1c1ccccc1C [Ponesimod, (R)-5-[3-chloro-4-(2,3-dihydroxy-propoxy)-benz[Z]ylidene]-2-([Z]-propylimino)-3-o-tolyl-thiazolidin-4-one]
[1]; Safety Set
  AESI effect on heart rate and rhythm (including hypotension) on Day 1: subjects with at least one AE, %: (2.1) %
  AESI category Effect on heart rate and rhythm (including aypotension), %: (5.1) %
  AESI category Hepatobiliary disorders/Liver enzyme abnormality, %: (25.7) %
  AESI category Herpetic infection, %: (4.8) %
  AESI category Hypertension, %: (10.1) %
  AESI category Macular edema, %: (1.1) %
  AESI category Non-skin malignancy, %: (0.2) %
  AESI category Pulmonary events, %: (8.0) %
  AESI category Seizure, %: (1.4) %
  AESI category Skin malignancy, %: (0.9) %
  AESI category Infection, %: (1.6) %
[1]; [3]
  AESI effect on heart rate and rhythm (including hypotension) on Day 1: subjects with at least one AE, %: 2.1%
  AESI category Hepatobiliary disorders/Liver enzyme abnormality, %: 25.7%
  AESI category Hypertension, %: 10.1%
  AESI category Pulmonary events, %: 8.0%
[1]; Day 1, Safety Set
  Day 1 AESI PT Atrioventricular block first degree, %: (0.5) %
  Day 1 AESI PT Bradycardia, %: (0.7) %
  Day 1 AESI PT Bundle branch block left, %: (0.2) %
  Day 1 AESI PT Bundle branch block right, %: (0.2) %
  Day 1 AESI PT Defect conduction intraventricular, %: (0.4) %
  Day 1 AESI PT Sinus arrhythmia, %: (0.2) %
  Day 1 AESI PT Sinus bradycardia, %: (0.2) %
[1]
  TEAE ALT increased, subjects: 19.5%
  TEAE headache, subjects: 11.5%
  TEAE nasopharyngitis, subjects: 19.3%
  TEAE upper respiratory tract infection, subjects: 10.6%
[1]; treatment-emergent, Safety Set
  AEs leading to premature discontinuation, SOC Blood and lymphatic system disorders, %: (0.5) %
  AEs leading to premature discontinuation, SOC Cardiac disorders, %: (0.2) %
  AEs leading to premature discontinuation, SOC Eye disorders, %: (0.9) %
  AEs leading to premature discontinuation, SOC Gastrointestinal disorders, %: (0.7) %
  AEs leading to premature discontinuation, SOC General disorders and administration site conditions, %: (0.5) %
  AEs leading to premature discontinuation, SOC Hepatobiliary disorders, %: (0.5) %
  AEs leading to premature discontinuation, SOC Investigations, %: (2.1) %
  AEs leading to premature discontinuation, SOC Musculoskeletal and connective tissue disorders, %: (0.2) %
  AEs leading to premature discontinuation, SOC Neoplasms benign, malignant and unspecified (incl cysts and polyps), %: (0.2) %
  AEs leading to premature discontinuation, SOC Nervous system disorders, %: (0.4) %
  AEs leading to premature discontinuation, SOC Pregnancy, puerperium and perinatal conditions, %: (0.5) %
  AEs leading to premature discontinuation, SOC Psychiatric disorders, %: (0.2) %
  AEs leading to premature discontinuation, SOC Respiratory, thoracic and mediastinal disorders, %: (1.2) %
  AEs leading to premature discontinuation, SOC Skin and subcutaneous tissue disorders, %: (0.2) %
  AEs leading to premature discontinuation, SOC Social circumstances, %: (0.4) %
  AEs leading to premature discontinuation, SOC Vascular disorders, %: (0.5) %
  Subjects with at least one AE leading to study drug discontinuation, %: (8.7) %
  Subjects with at least one AE, %: (88.8) %
  Subjects with at least one Drug-Related AE, %: (49.2) %
  Subjects with at least one Serious AE, %: (8.7) %
  Subjects with at least one Severe AE, %: (6.9) %
[1]; [4]
  Subjects with at least one AE leading to study drug discontinuation, %: 8.7%
  Subjects with at least one AE, %: 88.8%
  Subjects with at least one Serious AE, %: 8.7%
[2]; EDSS≤3 subgroup
  ARR rate ratio (RR), ponesimod vs teriflunomide: 0.530
  Reduction of ARR vs teriflunomide: 47%
[2]; Full Analysis Set
  Raw ARR: 0.216
  Total number of relapses (confirmed, up to EOS): 242
  Mean estimate (ARR), confirmed relapses up to EOS, negative binomial regression: 0.202
[2]; ponesimod 20 mg vs teriflunomide 14 mg
  Reduction of ARR (confirmed relapses) up to EOS compared to teriflunomide: 30.5%
[2]; ponesimod 20 mg vs teriflunomide 14 mg, Full Analysis Set
  Treatment effect (rate ratio) on ARR, ponesimod vs teriflunomide: 0.695

## C/C(O)=C(\C#N)C(=O)Nc1ccc(C(F)(F)F)cc1 [Teriflunomide, reference compound]
[1]; Safety Set
  AESI effect on heart rate and rhythm (including hypotension) on Day 1: subjects with at least one AE, %: (0.4) %
  AESI category Effect on heart rate and rhythm (including aypotension), %: (4.2) %
  AESI category Hepatobiliary disorders/Liver enzyme abnormality, %: (14.5) %
  AESI category Herpetic infection, %: (4.8) %
  AESI category Hypertension, %: (9.0) %
  AESI category Macular edema, %: (0.2) %
  AESI category Non-skin malignancy, %: (0.2) %
  AESI category Pulmonary events, %: (2.7) %
  AESI category Seizure, %: (0.2) %
  AESI category Skin malignancy, %: (0.2) %
  AESI category Infection, %: (0.9) %
[1]; [5]
  AESI effect on heart rate and rhythm (including hypotension) on Day 1: subjects with at least one AE, %: 0.4%
  AESI category Hepatobiliary disorders/Liver enzyme abnormality, %: 14.5%
  AESI category Hypertension, %: 9.0%
  AESI category Pulmonary events, %: 2.7%
[1]; Day 1, Safety Set
  Day 1 AESI PT Electrocardiogram QT prolonged, %: (0.2) %
  Day 1 AESI PT Presyncope, %: (0.2) %
[1]
  TEAE ALT increased, subjects: 9.4%
  TEAE headache, subjects: 12.7%
  TEAE nasopharyngitis, subjects: 16.8%
  TEAE upper respiratory tract infection, subjects: 10.4%
[1]; treatment-emergent, Safety Set
  AEs leading to premature discontinuation, SOC Blood and lymphatic system disorders, %: (0.4) %
  AEs leading to premature discontinuation, SOC Cardiac disorders, %: (0.4) %
  AEs leading to premature discontinuation, SOC Gastrointestinal disorders, %: (0.7) %
  AEs leading to premature discontinuation, SOC General disorders and administration site conditions, %: (0.4) %
  AEs leading to premature discontinuation, SOC Hepatobiliary disorders, %: (0.4) %
  AEs leading to premature discontinuation, SOC Investigations, %: (1.8) %
  AEs leading to premature discontinuation, SOC Musculoskeletal and connective tissue disorders, %: (0.2) %
  AEs leading to premature discontinuation, SOC Neoplasms benign, malignant and unspecified (incl cysts and polyps), %: (0.2) %
  AEs leading to premature discontinuation, SOC Nervous system disorders, %: (0.7) %
  AEs leading to premature discontinuation, SOC Pregnancy, puerperium and perinatal conditions, %: (0.5) %
  AEs leading to premature discontinuation, SOC Psychiatric disorders, %: (0.2) %
  AEs leading to premature discontinuation, SOC Reproductive system and breast disorders, %: (0.2) %
  AEs leading to premature discontinuation, SOC Skin and subcutaneous tissue disorders, %: (0.4) %
  AEs leading to premature discontinuation, SOC Social circumstances, %: (0.2) %
  AEs leading to premature discontinuation, SOC Surgical and medical procedures, %: (0.2) %
  Subjects with at least one AE leading to study drug discontinuation, %: (6.0) %
  Subjects with at least one AE, %: (88.2) %
  Subjects with at least one Drug-Related AE, %: (42.0) %
  Subjects with at least one Fatal AE, %: (0.4) %
  Subjects with at least one Serious AE, %: (8.1) %
  Subjects with at least one Severe AE, %: (4.6) %
[1]; [6]
  Subjects with at least one AE leading to study drug discontinuation, %: 6.0%
  Subjects with at least one AE, %: 88.2%
  Subjects with at least one Serious AE, %: 8.1%
[2]; Full Analysis Set
  Raw ARR: 0.303
  Total number of relapses (confirmed, up to EOS): 344
  Mean estimate (ARR), confirmed relapses up to EOS, negative binomial regression: 0.290
